From patent US5081131A, “Omega-((hetero)alkyl)benz(cd)-indol-2-amines” (American Cyanamid Company, priority 1988, dated 1992)

tested on: spontaneously hypertensive rats; test: Hypotensive activity in spontaneously hypertensive rats (MABP); type: in vivo, rat (Okamoto strain); conditions: SHR, gavage, two doses of 10 mg/kg or less 24 h apart, MABP at 28 h; average baseline 160±1.5 mm Hg
Description: The novel compounds of the present invention are active hypotensive agents and were tested for hypotensive activity by the method of P. S. Chan and D. Poorvin, Clinical and Experimental Hypertension, 1 (6), 817-830 (1979). Male, 16 week old, spontaneously hypertensive rats of the Okamoto strain, from Taconic Farms, Germantown, N.Y., having an average mean arterial blood pressure of 160±1.5 mm of mercury, were used in the test. One to 4 rats were used per test compound. A rat was dosed by gavage with a test compound, suspended in 2% pre-boiled starch at a concentration of 50 mg/ml, at a doses of 10 mg/kg of body weight or less, with 0.9% sodium chloride loading at a dose of 25 ml/kg of body weight. A second identical dose of the test compound, without sodium chloride loading was given 24 hours later. At 28 hours after initial dose the mean arterial blood pressure (MABP) was measured. The procedure was repeated in a second and third rat when necessary.

Structure (SMILES) | Avg. MABP in mm Hg (No. of Rats) [mm Hg]
CC(CNC1=Nc2c(Cl)cc(Cl)c3cccc1c23)Cn1ccnc1 (stereo not drawn) [6,8-Dichloro-N-(3-(1H-imidazol-1-yl)-2-methylpropyl)benz(cd)indol-2-amine sesqui-furamate] | 116
CC(CCNC1=Nc2c(Cl)cc(Cl)c3cccc1c23)n1ccnc1.Cl.Cl (stereo not drawn) [6,8-Dichloro-N-(3-(1H-imidazol-1-yl)butyl)benz(cd)indol-2-amine dihydrochloride] | 134
Cl.Cl.Clc1cc(Cl)c2cccc3c2c1N=C3NCCCCCCCn1ccnc1 [6,8-Dichloro-N-(7-(1H-imidazol-1-yl)heptyl)benz(cd)indol-2-amine dihydrochloride] | 130
CC(CNC1=Nc2ccc(Br)c3cccc1c23)Cn1ccnc1.Cl.Cl (stereo not drawn) [6-Bromo-N-(3-(1H-imidazol-1-yl)-2-methylpropyl)benz(cd)indol-2-amine, dihydrochloride] | 107
Clc1ccc2c3c(cccc13)C(NCCCn1ccnc1)=N2 [6-Chloro-N-(3-(1H-imidazol-l-yl)propyl)benz(cd)indol-2-amine] | 124
Fc1ccc2c3c(cccc13)C(NCCCn1ccnc1)=N2 [6-Fluoro-N-(3-(1H-imidazol-1-yl)propyl)benz(cd)indol-2-amine] | 94
C(=C/Cn1ccnc1)/CNC1=Nc2cccc3cccc1c23.O=C(O)/C=C/C(=O)O [(Z)-N-(4-(1H-imidazol-1-yl)-2-butenyl)benz(cd)indol-2-amine, fumarate] | 102
Clc1ccc(C(Cn2cncn2)NC2=Nc3cccc4cccc2c34)cc1.O=C(O)/C=C/C(=O)O (stereo not drawn) [N-(1-(4-Chlorophenyl)-2-(1H-1,2,4-triazol-1-yl)ethyl)benz(cd)indol-2-amine fumarate] | 142
O=C(O)/C=C/C(=O)O.c1cc2c3c(cccc3c1)C(NCCn1ccnc1)=N2 [N-(2-(1H-imidazol-1-yl)ethyl)benz(cd)indol-2-amine, fumarate] | 97
O=C(O)/C=C/C(=O)O.c1cc2c3c(cccc3c1)C(NCCOCCn1ccnc1)=N2 [N-(2-(2-(1H-imidazol-1-yl)ethoxy)ethyl)benz(cd)indol-2-amine, fumarate] | 108
O=C(O)/C=C/C(=O)O.c1ccc(CSCCNC2=Nc3cccc4cccc2c34)nc1 [N-(2-((2-pyridinylmethyl)thio)ethyl)benz(cd)indol-2-amine fumarate] | 143
CCC(CC)(CNC1=Nc2cccc3cccc1c23)Cn1ccnc1 [N-(2-Ethyl-2-(1H-imidazol-1-yl)methyl)butylbenz(cd)indol-2-amine sesqui-fumarate] | 112
CN(CCCn1ccnc1)C1=Nc2cccc3cccc1c23 [N-(3-1H-imidazol-1-yl)propyl)-N-methylbenz(cd)indol-2-amine] | 95
O=C(O)/C=C/C(=O)O.c1cc2c3c(cccc3c1)C(NCCCn1cccn1)=N2 [N-(3-(1H-Pyrazol-1-yl)propyl)benz(cd)indol-2-amine fumarate] | 141
O=C(O)/C=C/C(=O)O.O=C(O)/C=C/C(=O)O.OC(CNC1=Nc2cccc3cccc1c23)Cn1ccnc1 (stereo not drawn) [N-(3-(1H-imidazol-1-yl)-2-hydroxypropyl)benz(cd)indol-2-amine bis-fumarate] | 132
O=C(O)/C=C/C(=O)O.O=C(O)/C=C/C(=O)O.c1cc2c3c(cccc3c1)C(NCCCn1ccnc1)=N2 [N-(3-(1H-imidazol-1-yl)propyl)benz(cd)indol-2-amine, bis-fumarate] | 81
Cc1csc(CCCNC2=Nc3cccc4cccc2c34)n1.O=C(O)/C=C/C(=O)O [N-(3-(4-Methyl-2-thiazolyl)propyl)benz(cd)indol-2-amine fumarate] | 122
Cc1cn(CCCNC2=Nc3cccc4cccc2c34)cn1.Cl.Cl [N-(3-(4-methyl-1H-imidazol-1-yl)propyl)benz(cd)indol-2-amine, dihydrochloride] | 106
